Laboratory results reported in article PMC12514577, “Activity-based probes and chemical proteomics uncover the biological impact of targeting HMG-CoA Synthase 1 in the mevalonate pathway” (The Journal of Biological Chemistry, 2025).

How the values were obtained:
[1] = biological target: T1, 3-hydroxy-3-methylglutaryl-coenzyme A synthase 1 (HMGCS1) (Homo sapiens, UniProt Q01581); assay: competitive affinity purification TMT mass spectrometry and immunoblot in HEK293T cells; format: cell-based; set-up: endogenous HMGCS1 in HEK293T cells
T1 sequence (Q01581 1-520): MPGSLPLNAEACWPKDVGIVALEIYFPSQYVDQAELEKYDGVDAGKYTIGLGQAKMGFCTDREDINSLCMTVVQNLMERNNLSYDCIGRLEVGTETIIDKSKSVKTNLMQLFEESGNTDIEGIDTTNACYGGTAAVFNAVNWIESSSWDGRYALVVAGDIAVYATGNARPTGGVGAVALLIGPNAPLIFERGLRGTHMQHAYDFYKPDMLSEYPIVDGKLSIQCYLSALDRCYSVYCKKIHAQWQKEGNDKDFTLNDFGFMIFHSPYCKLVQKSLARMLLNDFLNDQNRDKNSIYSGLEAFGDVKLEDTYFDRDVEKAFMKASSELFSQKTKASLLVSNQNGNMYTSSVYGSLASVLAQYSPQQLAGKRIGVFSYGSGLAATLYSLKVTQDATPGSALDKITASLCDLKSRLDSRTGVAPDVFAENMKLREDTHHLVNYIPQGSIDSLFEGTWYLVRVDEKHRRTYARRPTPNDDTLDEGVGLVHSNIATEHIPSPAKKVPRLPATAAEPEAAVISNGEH

[2] = biological target: T1, 3-hydroxy-3-methylglutaryl-coenzyme A synthase 1 (HMGCS1); assay: Glu-C MS/MS of adduct on recombinant HMGCS1; dose-dependent competition with HG-FL in gel; competitive chemoproteomics in HEK293T; format: binding; set-up: recombinant HMGCS1 (pET60b-HMGCS1-TEV-6His)

CC(=C\C(=O)NCCOCCOCCNC(=O)CCCC[C@@H]1SC[C@@H]2NC(=O)N[C@@H]21)/C=C(\C)C[C@H](C)CCCC[C@H]1OC(=O)[C@@H]1CO [HG-biotin, Hymeglusin-biotin]
competitive affinity purification TMT mass spectrometry and immunoblot in HEK293 [1]: An orthogonal immunoblotting assay confirmed the strong enrichment of HMGCS1 by HG-biotin in DMSO pre-treated cells

CC(=C\C(=O)O)/C=C(\C)C[C@H](C)CCCC[C@H]1OC(=O)[C@@H]1CO [HG, Hymeglusin]
Glu-C MS/MS of adduct on recombinant HMGCS1; dose-dependent competition with HG- [2]: Mass spectrometry analysis of recombinant HMGCS1, after incubation with HG, further confirmed the modification of C129 by HG
